Measured values from patent US11000528B2, “Compound useful for the treatment of degenerative and inflammatory diseases” (Galapagos NV, priority 2009, dated 2021).
One block for each compound: values may come before it.

Experiments:
[1] = tested on: JAK-STAT signalling in HeLa cells; assay: JAK-STAT signalling assay (OSM-triggered pSTAT1(2)-luciferase reporter in HeLa cells); assay type: cell-based; settings: Homo sapiens, human OSM 33 ng/mL, STAT1 luciferase reporter
Method: HeLa cells were maintained in Dulbecco's Modified Eagle's Medium (DMEM) containing 10% heat inactivated fetal calf serum, 100 U/mL penicillin and 100 μg/mL streptomycin. HeLa cells were used at 70% confluence for transfection. 20,000 cells in 87 μL cell culture medium were transiently transfected with 40 ng pSTAT1(2)-luciferase reporter (Panomics), 8 ng of LacZ reporter as internal control reporter and 52 ng of pBSK using 0.32 μL Jet-PEI (Polyplus) as transfection reagent per well in 96-well plate format. After overnight incubation at 37° C., 10% CO2, transfection medium was removed.
40 μL of cell lysate was used to read β-galactosidase activity by adding 180 μL β-Gal solution (30 μL ONPG 4 mg/mL+150 μL β-Galactosidase buffer (0.06 M Na2HPO4, 0.04 M NaH2PO4, 1 mM MgCl2)) for 20 min.
The positive and negative controls were used to calculate z′ and ‘percent inhibition’ (PIN) values.
PIN values were plotted for compounds tested in dose-response and EC50 values were derived.

[2] = Microsomal stability, human liver microsomes; assay type: in vitro ADME; settings: 3 μM compound
Method: (§1) A 10 mM stock solution of compound in DMSO was diluted 1000 fold in a 182 mM phosphate buffer pH7.4 in a 96 deep well plate (Greiner, Cat no. 780285) and pre-incubated at 37° C.
(§2) 40 μL of deionised water was added to a well of a polypropylene Matrix 2D barcode labelled storage tube (Thermo Scientific) and pre-incubated at 37° C.
(§3) A Glucose-6-phophate-dehydrogenase (G6PDH) working stock solution was prepared in 182 mM phosphate buffer pH7.4 and placed on ice before use. A co-factor containing MgCl2, glucose-6-phosphate and NADP+ was prepared in deionised water and placed on ice before use.
(§4) A final working solution containing liver microsomes (Xenotech) of a species of interest (human, mouse, rat, dog), previously described G6PDH and co-factors was prepared and this mix was incubated for no longer than 20 minutes at room temperature.
(§5) 30 μL of the pre-heated compound dilution was added to 40 μL of pre-heated water in the Matrix tubes and 30 μL of the microsomal mix was added. Final reaction concentrations were 3 μM compound, 1 mg microsomes, 0.4 U/mL GDPDH, 3.3 mM MgCl2, 3.3 mM glucose-6-phosphate and 1.3 mM NADP+.
(§6) To measure percentage remaining of compound at time zero MeOH or ACN was added (1:1) to the well before adding the microsomal mix. The plates were sealed with Matrix Sepra Seals™ (Matrix, Cat. No. 4464) and shaken for a few seconds ensure complete mixing of all components.
(§7) The samples which were not stopped are incubated at 37° C., 300 rpm and after 1 hr of incubation the reaction was stopped with MeOH or ACN (1:1).
(§8) After stopping the reaction the samples were mixed and placed on ice for 30 min to precipitate the proteins. The plates were then centrifuged 30 min at 1200 rcf at 4° C. and the supernatant was transferred to a 96 v-bottom PP plate (Greiner, 651201) for analysis on LCMS.
(§9) These plates were sealed with sealing mats (MA96RD-04S) of www.kinesis.co.uk and samples were measured at room temperature on LCMS (ZQ 1525 from Waters) under optimized conditions using Quanoptimize to determine the appropriate mass of the parent molecule.
(§10) The samples were analyzed on LCMS with a flow rate of 1 mL/min. Solvent A was 15 mM ammonia and solvent B was methanol or acetonitrile, depending on the stop solution used. The samples were run under positive ion spray on an XBridge C18 […] (2.1×30 mm) column, from Waters.
(§11) Peak area from the parent compound at time 0 was considered to be 100% remaining. The percentage remaining after 1 hr incubation was calculated from time 0 and was calculated as the percentage remaining. The solubility of the compound in the final test concentration in buffer is inspected by microscope and results are reported.
(§12) The data on microsomal stability are expressed as a percentage of the total amount of compound remaining after 60 min.

[3] = Microsomal stability, rat liver microsomes; assay type: in vitro ADME; settings: 3 μM compound
Method: as §1, §2, §3, §4, §5, §6, §7, §8, §9, §10, §11, §12

[4] = tested on: rat CIA model; assay: Rat collagen induced arthritis (CIA) model; assay type: in vivo; parameters: key to Clinical Assessment End point score / Clinical Assessment AUC Score / Paw swelling / Larsen' Score: a “*” indicates that there was a statistically significant improvement in the score, p 0.05 vs. untreated control; settings: for Clinical Assessment AUC Score / Clinical Assessment End point score: normalized score
Method: Dark Agouti rats (male, 7-8 weeks old) were obtained from Harlan Laboratories (Maison-Alfort, France). Rats were kept on a 12 hr light/dark cycle (0700-1900). Temperature was maintained at 22° C., and food and water were provided ad libitum.
One day before the experiment, CII solution (2 mg/mL) was prepared with 0.05 M acetic acid and stored at 4° C. Just before the immunization, equal volumes of adjuvant (IFA) and CII were mixed by a homogenizer in a pre-cooled glass bottle in an ice water bath. Extra adjuvant and prolonged homogenization may be required if an emulsion is not formed. 0.2 mL of the emulsion was injected intradermally at the base of the tail of each rat on day 1, a second booster intradermal injection (CII solution at 2 mg/mL in CFA 0.1 mL saline) was performed on day 9. This immunization method was modified from published methods (Sims et al, 2004; Jou et al., 2005).
The therapeutic effects of the compounds were tested in the rat CIA model. Rats were randomly divided into equal groups and each group contained 10 rats. All rats were immunized on day 1 and boosted on day 9. Therapeutic dosing lasted from day 16 to day 30. The negative control group was treated with vehicle (MC 0.5%) and the positive control group with Enbrcl (10 mg/kg, 3× week., s.c.). A compound of interest was typically tested at 3 doses, e.g. 3, 10, 30 mg/kg, p.o.
Arthritis is scored according to the method of Khachigian 2006, Lin et al 2007 and Nishida et al. 2004). The swelling of each of the four paws is ranked with the arthritic score as follows: 0-no symptoms; 1-mild, but definite redness and swelling of one type of joint such as the ankle or wrist, or apparent redness and swelling limited to individual digits, regardless of the number of affected digits; 2-moderate redness and swelling of two or more types of joints; 3-severe redness and swelling of the entire paw including digits; 4-maximally inflamed limb with involvement of multiple joints (maximum cumulative clinical arthritis score 16 per animal) (Nishida et al., 2004).
To permit the meta-analysis of multiple studies the clinical score values were normalised as follows:
AUC of clinical score (AUC score): The area under the curve (AUC) from day 1 to day 14 was calculated for each individual rat. The AUC of each animal was divided by the average AUC obtained for the vehicle in the study from which the data on that animal was obtained and multiplied by 100 (i.e. the AUC was expressed as a percentage of the average vehicle AUC per study).
Clinical score increase from day 1 to day 14 (End point score): The clinical score difference for each animal was divided by the average clinical score difference obtained for the vehicle in the study from which the data on that animal was obtained and multiplied by 100 (i.e. the difference was expressed as a percentage of the average clinical score difference for the vehicle per study).
X-ray photos were taken of the hind paws of each individual animal. A random blind identity number was assigned to each of the photos, and the severity of bone erosion was ranked by two independent scorers with the radiological Larsen's score system as follows: 0—normal with intact bony outlines and normal joint space; 1—slight abnormality with any one or two of the exterior metatarsal bones showing slight bone erosion; 2—definite early abnormality with any three to five of the exterior metatarsal bones showing bone erosion; 3—medium destructive abnormality with all the exterior metatarsal bones as well as any one or two of the interior metatarsal bones showing definite bone erosions; 4—severe destructive abnormality with all the metatarsal bones showing definite bone erosion and at least one of the inner metatarsal joints completely eroded leaving some bony joint outlines partly preserved; 5—mutilating abnormality without bony outlines. This scoring system is a modification from Salvemini et al., 2001; Bush et al., 2002; Sims et al., 2004; Jou et al., 2005.

[5] = Pharmacokinetic study in rodents (Sprague-Dawley rats); assay type: in vivo; settings: male, plasma; Sprague-Dawley rat, IV 1 mg/kg
Method: Sprague-Dawley rats (male, 5-6 weeks old) were obtained from Janvier (France). Rats were acclimatized for at least 7 days before treatment and were kept on a 12 hr light/dark cycle (0700-1900). Temperature was maintained at approximately 22° C., and food and water were provided ad libitum. […] After the surgery, rats were housed individually. Rats were deprived of food for at least 16 hours before oral dosing and 6 hours after. Water was provided ad libitum.
Test compounds were orally dosed as a single esophageal gavage at 5 mg/kg under a dosing volume of 5 ml/kg and intravenously dosed as a bolus via the caudal vein at 1 mg/kg under a dosing volume of 5 mL/kg. Each group consisted of 3 rats. […] For compound 11, blood samples were collected at the retro-orbital sinus with lithium heparin as anti-coagulant at the following time points 0.25, 1, 3 and 6 hrs (oral route). Whole blood samples were centrifuged at 5000 rpm for 10 min and the resulting plasma samples were stored at −20° C. pending analysis.
Plasma concentrations of each test compound were determined by an LC-MS/MS method in which the mass spectrometer was operated in positive electrospray mode.
Pharmacokinetic parameters were calculated using Winnonlin® (Pharsight®, United States).

[6] = tested on: Circulating TNF alpha levels; assay: Septic shock model (LPS-induced TNF alpha release); assay type: in vivo, mouse; settings: BALB/cJ mice, 30 mg/kg po, LPS 15 μg/kg ip
Method: Injection of lipopolysaccharide (LPS) induces a rapid release of soluble tumour necrosis factor (TNF-alpha) into the periphery. This model was used to analyse prospective blockers of TNF release in vivo. Six BALB/cJ female mice (20 g) per group were treated at the intended dosing once, po. Thirty minutes later, LPS (15 μg/kg; E. coli serotype 0111:B4) was injected ip. Ninety minutes later, mice were euthanized and blood was collected. Circulating TNF alpha levels were determined using commercially available ELISA kits. Dexamethasone ([…]) was used as a reference anti-inflammatory compound. Selected compounds were tested at one or multiple doses, e.g. 3 and/or 10 and/or 30 mg/kg, po.

[7] = tested on: MMP13 levels in human chondrosarcoma cell line SW1353; assay: cells; settings: SW1353, 48 h
Method: The cells were seeded in 96 well plates at 15,000 cells/well in a volume of 120 μL DMEM (Invitrogen) containing 10% (v/v) FBS and 1% penicillin/streptomycin (InVitrogen) incubated at 37° C. 5% CO2. Cells were preincubated with 15 μL of compound in M199 medium with 2% DMSO 1 hr before triggering with 15 μL OSM and IL-1β to reach 25 ng/mL OSM and 1 ng/mL IL-1β, and MMP13 levels were measured in conditioned medium 48 hours after triggering. MMP13 activity was measured using an antibody capture activity assay. For this purpose, 384 well plates (NUNC, 460518, MaxiSorb black) were coated with 35 μL of a 1.5 μg/mL anti-human MMP13 antibody (R&D Systems, MAB511) solution for 24 hrs at 4° C. After washing the wells 2 times with PBS+0.05% Tween, the remaining binding sites were blocked with 100 μL 5% non-fat dry milk (Santa Cruz, sc-2325, Blotto) in PBS for 24 hr at 4° C. […] After incubation for 24 hrs at 37° C. fluorescence of the converted substrate was measured in a Perkin Elmer Wallac EnVision 2102 Multilabel Reader (wavelength excitation: 320 nm, wavelength emission: 405 nm). Percentage inhibition=((fluorescence determined in the presence of vehicle−fluorescence determined for sample with test compound present) divided by (fluorescence determined in the presence of vehicle−fluorescence determined for sample without trigger))*100.

EC50 [1]: 740 nM | microsomal stability, percentage of compound remaining after 60 min, Human [2]: 51% | microsomal stability, percentage of compound remaining after 60 min, Rat [3]: 26%
Structure (SMILES): O=C(Nc1nc2cccc(-c3ccc(CN4CCC(F)(F)CC4)cc3)n2n1)C1CC1 [Compound 11, Cyclopropanecarboxylic acid {5-[4-(4,4-difluoro-piperidin-1-ylmethyl)-phenyl]-[1,2,4]triazolo[1,5-a]pyridin-2-yl}-amide]

microsomal stability, percentage of compound remaining after 60 min, Human [2]: 73% | microsomal stability, percentage of compound remaining after 60 min, Rat [3]: 38% | C0 [5]: 863 ng/mL
Structure (SMILES): O=C(Nc1nc2cccc(-c3ccc(CN4CCOCC4)cc3)n2n1)C1CC1 [Compound 2, N-(5-(4-(morpholinomethyl)phenyl)-[1,2,4]triazolo[1,5-a]pyridin-2-yl)cyclopropanecarboxamide]
normalized clinical score values (on day 14) ([4]; dose of 10 mg/kg): statistically significant improvements | Larsen score ([4]; dose of 30 mg/kg): statistically significant increase | paw swelling readout ([4]; dose of 30 mg/kg): statistically significant increase

microsomal stability, percentage of compound remaining after 60 min, Human [2]: 87.2% | microsomal stability, percentage of compound remaining after 60 min, Rat [3]: 65.6% | C0 [5]: 1410 ng/mL
Structure (SMILES): O=C(Nc1nc2cccc(-c3ccc(CN4CCS(=O)(=O)CC4)cc3)n2n1)C1CC1 [Compound 1, Cyclopropanecarboxylic acid {5-[4-(1,1-dioxo-1-thiomorpholin-4-ylmethyl)-phenyl]-[1,2,4]triazolo[1,5-a]pyridin-2-yl}-amide]
Clinical Assessment AUC Score ([4]; 0.1 mg/kg/day p.o.): * | Clinical Assessment End point score ([4]; 0.1 mg/kg/day p.o.): * | Paw swelling ([4]; 0.3 mg/kg/day p.o.): * | Clinical Assessment AUC Score ([4]; 0.3 mg/kg/day p.o.): * | Clinical Assessment End point score ([4]; 0.3 mg/kg/day p.o.): * | Paw swelling ([4]; 1 mg/kg/day p.o.): * | Clinical Assessment AUC Score ([4]; 1 mg/kg/day p.o.): * | Clinical Assessment End point score ([4]; 1 mg/kg/day p.o.): * | Larsen' Score ([4]; 3 mg/kg/day p.o.): * | Paw swelling ([4]; 3 mg/kg/day p.o.): * | Clinical Assessment AUC Score ([4]; 3 mg/kg/day p.o.): * | Clinical Assessment End point score ([4]; 3 mg/kg/day p.o.): * | normalized clinical score values (calculated as AUC or as the difference from day 1 to day 14) ([4]; dose of 0.1 mg/kg): statistically significant improvements | paw swelling readout ([4]; dose of 0.3 mg/kg): statistically significant increase | Larsen score ([4]; dose of 3 mg/kg): statistically significant increase | improvement in efficacy over Compound 2 when the oral doses are compared ([4]; oral doses compared): 100 fold | activity in septic shock model (blocking of TNF release) [6]: active | EC50 [7]: 2240 nM

microsomal stability, percentage of compound remaining after 60 min, Human [2]: 102% | microsomal stability, percentage of compound remaining after 60 min, Rat [3]: 89%
Structure (SMILES): O=C(Nc1nc2cccc(-c3ccc(C(=O)N4CCS(=O)(=O)CC4)cc3)n2n1)C1CC1 [Compound 10, Cyclopropanecarboxylic acid {5-[4-(1,1-dioxo-1-thiomorpholine-4-carbonyl)-phenyl]-[1,2,4]triazolo[1,5-a]yridin-2-yl}-amide]
